The subject of one series is human erythrocytes. The series can be described thus: Hemolytic activity. To be noted: compared within series 3a-g and reference drug. It is filed as cell-based. On the procedure: Hemolytic activity of test compounds was estimated by comparing the optical density of a solution containing the test compound with that of blood at 100 % hemolysis. The experiments were carried out as described earlier.
An important step in the determination of the biological activity of new chemical compounds is the assessment of their cytotoxic action in relation to mammalian cells. The ability of the investigated compound to cause the destruction of human erythrocytes illustrates its toxic effect on the internal environment of the body. The hemolysis assay is a simple screening test, the results of which can help in the study of cytotoxicity in more complex models. Such experimental models can be the cell lines obtained from various organs and tissues of a person and allowing to adequately assessing the effect of new potential drugs on cell metabolism.

Series [1] deals with Bacillus cereus ATCC 10702 NCTC 8035. Briefly: Antimicrobial activity, serial dilution (MIC/MBC), Bc. It is filed as cell-based. How it is done:
(§1) The antimicrobial activity of the test compounds was determined by the serial dilution technique in Muller Hinton Broth 2 and in Sabouradu broth for fungi. The cultures used for testing included Gram-positive bacteria: Staphylococcus aureus ATCC 6538P FDA 209P, Bacillus cereus ATCC 10702 NCTC 8035, Enterococcus faecalis ATCC 29212; Gram-negative bacteria: Escherichia coli ATCC 25922, Pseudomonas aeruginosa ATCC 9027, and fungi: Trichophyton mentagrophytes var. gypseum 1773, and Candida albicans ATCC 10231; methicillin-resistant strains of S. aureus (MRSA) was obtained from hospital patients with chronic tonsillitis in the Republican Clinical Hospital (Kazan, Russia). The bacterial load was 3.0 × 10^5 cfu/ml. The fungi load was 2.0 × 10^3 cfu/ml. The results were recorded every 24 h for 5-7 days. Cultures were incubated at 37 °C. The experiment was repeated three times. […] The minimum inhibitory concentration (MIC) was defined as the minimum concentration of a compound that inhibits the growth of the corresponding test microorganism. The growth of bacteria, as well as the absence of the growth due to the bacteriostatic action of compounds, were recorded.
(§2) Synthesized compounds were further evaluated for antimicrobial activity against test microorganisms: Staphylococcus aureus ATCC 209p (Sa), Bacillus cereus ATCC 8035 (Bc), Escherichia coli CDC F-50 (Ec), Enterococcus faecalis (Ef), Pseudomonas aeruginosa ATCC 9027, Aspergillus niger BKMF-1119, Trichophyton mentagrophytes var. gypseum 1773, and Candida albicans 855-653 including methicillin-resistant strains of S. aureus (MRSA 1 and MRSA 2). The minimum inhibitory (MIC) and minimum bactericidal (MBC) concentrations of ammonium salts were determined against these pathogens (Table 1). Due to the lack of activity of compounds 3a-g against Gram-negative bacterial strains and some fungi, the corresponding data are not shown.

The subject of series [2] is methicillin-resistant strains of S. aureus (MRSA-1). Briefly: Antimicrobial activity, serial dilution (MIC/MBC), MRSA-1. It is filed as cell-based. To be noted: Staphylococcus aureus. On the procedure: as §1, §2
In series [3] the test system is Enterococcus faecalis ATCC 29212. The series can be described thus: Antimicrobial activity, serial dilution (MIC/MBC), Ef. It is filed as cell-based. To be noted: ATCC29212. On the procedure:
as §1, §2

In series [4] the test system is Staphylococcus aureus ATCC 6538P FDA 209P. Briefly: Antimicrobial activity, serial dilution (MIC/MBC), Sa. Format: cell-based. Conditions: Staphylococcus aureus. How it is done:
as §1, §2

In series [5] the test system is platelets (ADP-induced aggregation). The series can be described thus: Platelet aggregation (Born method), ADP-induced. To be noted: Homo sapiens, ADP 20 μg/mL, final concentration 2×10^–3 mol/L, median (25-75 percentiles), read-out: Platelets aggregation, % of control, ADP. It is filed as cell-based. How it is done: (§3) The in vitro experiments were performed using the blood of healthy male donors aged 18-24 years (total 54 donors). The study was approved by the Ethics Committee of Federal State Budgetary Educational Institution of Higher Education at the Bashkir State Medical University of the Ministry of Health of Russian Federation (No.2 dated 17.10.2012). Informed consent was obtained from all participants before blood sampling. The blood was collected from the cubital vein using the system of vacuum blood collection BD Vacutainer® (Becton, Dickinson and Company, USA). A 3.8 % sodium citrate solution in a 9:1 ratio was used as a venous blood stabiliser. The study of the effect on platelet aggregation was performed using the Born method using the aggregometer «AT-02» (SPC Medtech, Russia). The assessment of antiplatelet activity of the studied compounds and reference preparations was started with the final concentration of 2×10^–3 mol/L. Adenosine diphosphate (ADP; 20 μg/mL) and collagen (5 mg/mL) manufactured by Tehnologia-Standart Company, Russia, were used as inducers of aggregation. The study on the anticoagulant activity was performed by standard recognised clotting tests using the optical two-channel automatic analyser of blood coagulation Solar CGL 2110 (CJSC SOLAR, Belarus). The following parameters were studied: activated partial thromboplastin time (APTT), prothrombin time (PT) and fibrinogen concentrations according to the Clauss method. The determination of anticoagulant activity of the studied compounds and reference preparation was performed in a concentration of 5×10^–4 g/mL using the reagents manufactured by Tehnologia-Standart Company (Barnaul, Russia). The results of the study were processed using the statistical package Statistica 10.0 (StatSoft Inc, USA). The Shapiro–Wilk’s test was used to check the normality of actual data distribution. The form of distribution of the data obtained differed from the normal one; therefore, non-parametric methods were used for further analysis. The data were presented as medians and 25 and 75 percentiles. Analysis of variance was conducted using Kruskal–Wallis test. A p value of 0.05 was considered statistically significant.

Series [6] relates to platelets (collagen-induced aggregation). Briefly: Platelet aggregation (Born method), collagen-induced. It is filed as cell-based. Conditions: Homo sapiens, collagen 5 mg/mL, final concentration 2×10^–3 mol/L, median (25-75 percentiles), read-out: Platelets aggregation, % of control, Collagen. On the procedure: as §3
For series [7], the system named is activated partial thromboplastin time (intrinsic coagulation pathway). The series can be described thus: Anticoagulant activity, clotting test APTT. Further details: species or system human. Conditions: concentration 5×10^–4 g/mL; median (25-75 percentiles). How it is done: as §3
Series [8] concerns methicillin-resistant strains of S. aureus (MRSA-2). The series can be described thus: Antimicrobial activity, serial dilution (MIC/MBC), MRSA-2. It is filed as cell-based. Conditions: Staphylococcus aureus. On the procedure: as §1, §2
The subject of series [9] is Candida albicans ATCC 10231. The series can be described thus: Antimicrobial activity, serial dilution (MIC/MBC), Ca. Format: cell-based. To be noted: ATCC10231. On the procedure:
as §1, §2

Series [10] deals with Chang liver cell line (Human liver cells). Conditions: reference drug compared with 3a-g.

Structures can show the parent of a compound that is named as a salt. Where two headings read alike, the source gives them in different places. Marks after values point to notes of the source that are not given here.

Take gramicidin S [reference compound]: the “toxicity to red blood cells (in words)” value in the series on human erythrocytes is “much more toxic”.

The term melting point denotes the temperature of the solid-liquid transition. `CC[N+](CC)(CC)CC(=O)N/N=C1\C(=O)N(Cc2cc(C(C)(C)C)c(O)c(C(C)(C)C)c2)c2c(C)cccc21` (as salt: bromide) [Compound 3b, 2-(2-(1-(3,5-Di-tert-butyl-4-hydroxybenzyl)-7-methyl-2-oxoindolin-3-ylidene)hydrazinyl)-N,N,N-triethyl-2-oxoethanammonium bromide] had a melting point of 154 °C.

For orientation: MIC means the smallest concentration in the dilution series that meets the test's criterion for growth inhibition. For `CC[N+](CC)(CC)CC(=O)N/N=C1\C(=O)N(Cc2cc(C(C)(C)C)c(O)c(C(C)(C)C)c2)c2c(C)cccc21` [Compound 3b, 2-(2-(1-(3,5-Di-tert-butyl-4-hydroxybenzyl)-7-methyl-2-oxoindolin-3-ylidene)hydrazinyl)-N,N,N-triethyl-2-oxoethanammonium bromide], the minimal inhibitory concentration (MIC) in series [1] was 25.4 ± 1.9 µM; in series [1] (Bacillus cereus, read-out: MIC), approximately 25 µM; in series [2] it was 50.8 ± 4.1 µM; in series [3] it was more than 500 µM; in series [4], 3.2 ± 0.2 µM; in [8], 25.4 ± 2.3 µM. The minimum inhibitory concentration (MIC) in series [9] is more than 500 µM. For the same compound, the MBC in [1] (Bacillus cereus) is 203 µM; in [2], 203 µM; in [3], more than 500 µM; in series [4] (read-out: MBC (converted)), 25.4 µM; in series [8], 50.8 µM; in series [9], more than 500 µM. In addition, in the series with human erythrocytes, the “toxicity to red blood cells (in words)” value is given as “least toxic”. The inhibition at 2000 µM is 9.7% in series [5] and 10.3% in [6]. The “APTT, % of control” value in series [7] was “+7.3 (6.5-9.6) ^*, ^† % of control”.

Turning to `COc1cccc2c1C(=O)c1c(O)c3c(c(O)c1C2=O)C[C@@](O)(C(=O)CO)C[C@@H]3O[C@H]1C[C@H](N)[C@H](O)[C@H](C)O1` [doxorubicin], the “toxicity to liver cells (in words)” value in [10] was “much more toxic”.

`CC[N+](CC)(CC)CC(=O)N/N=C1\C(=O)N(Cc2cc(C(C)(C)C)c(O)c(C(C)(C)C)c2)c2ccc([N+](=O)[O-])cc21` (as salt: bromide) [Compound 3f, 2-(2-(1-(3,5-Di-tert-butyl-4-hydroxybenzyl)-5-nitro-2-oxoindolin-3-ylidene)hydrazinyl)-N,N,N-triethyl-2-oxoethanammonium bromide]: the melting point amounted to 176 °C.

`CC[N+](CC)(CC)CC(=O)N/N=C1\C(=O)N(Cc2cc(C(C)(C)C)c(O)c(C(C)(C)C)c2)c2c(Br)cc(Cl)cc21` (as salt: bromide) [Compound 3g, 2-(2-(1-(3,5-Di-tert-butyl-4-hydroxybenzyl)-5-chloro-7-bromo-2-oxoindolin-3-ylidene)hydrazinyl)-N,N,N-triethyl-2-oxoethanammonium bromide] had a melting point of 177 °C.

The values are drawn from article PMC8957246, “Synthesis and diverse biological activity profile of triethylammonium isatin-3-hydrazones” (ADMET & DMPK, 2022).
